{"source": "patent US8476233B2", "about": "“Methods for treatment for ulcerative colitis in mammals” (Therapeutic Research, LLC, priority 2003, dated 2013)", "key": {"[1]": {"test_system": "glutathione peroxidase (GPx)", "conditions": "cited from earlier work"}, "colonic mucosa": {"test_system": "colonic mucosa", "conditions": "rats, 3% solution, cited from earlier work"}, "[2]": {"test_system": "mitochondrial electron transport chain (whole chain respiration)", "conditions": "same study as cigarette tar; cited from earlier work"}, "ulcerative colitis": {"test_system": "ulcerative colitis", "assay": "Example 3: patient's response to earlier therapies", "format": "in vivo, human", "conditions": "patient history before the treatment of the invention", "source_text": "The recurrences occurred every 3-5 months."}}, "note": "Where two headings read alike, the source gives them in different places.", "data": [{"smiles": "N[C@@H](CCS)C(=O)O", "note": "[Homocysteine, homocysteine]", "values": [{"measurement": "inhibition of glutathione peroxidase (GPx) activity", "setting": "[1]; Outinen et al., 1999", "result": 10, "unit": "fold"}, {"measurement": "concentration of free homocysteine at which inhibition of GPx occurs", "setting": "[1]; physiologic concentration, Chen, 2000", "result": 9, "unit": "µmol/L"}]}, {"smiles": "OO", "note": "[hydrogen peroxide]", "values": [{"measurement": "extent of mucosal inflammation above the anus", "setting": "colonic mucosa; 5 hours after injection", "result": 5, "unit": "cm"}, {"measurement": "extent of mucosal inflammation above the anus", "setting": "colonic mucosa; by one week", "result": 9, "unit": "cm"}, {"measurement": "colonic outcome of rectal injection", "setting": "colonic mucosa; rectal injection", "result": "acute and chronic ulcerative colitis"}]}, {"smiles": "CN1CCCC1c1cccnc1", "note": "(stereo not shown) [nicotine]", "values": [{"measurement": "effect on electron transport activity", "setting": "[2]", "result": "no effect"}]}, {"smiles": "C[C@]12C=CC(=O)C=C1CC[C@@H]1[C@@H]2C(=O)C[C@@]2(C)[C@H]1CC[C@]2(O)C(=O)CO", "note": "[prednisone]", "values": [{"measurement": "clinical response of ulcerative colitis episodes to earlier therapy", "setting": "ulcerative colitis", "result": "improved for a few months"}]}]}
